Values quoted from earlier work as cited in PMC9516532, “A genetically encoded BRET-based SARS-CoV-2 M^pro protease activity sensor” (Communications Chemistry, 2022).

Tested on: P-gp
Settings: reviewer's comment; ref ACS Infect. Dis. 2021, 7, 3, 586–597

Q: With `CC(C)C[C@H](NC(=O)OCc1ccccc1)C(=O)N[C@@H](C[C@@H]1CCNC1=O)C(O)S(=O)(=O)[O-].[Na+]` (stereo partly shown) [GC376] as the compound, how does the P-gp substrate read?
A: known substrate of P-gp
